From PubChem BioAssay AID330 (DTP/NCI, 2004)
“And” between values parts separate entries of the source, which are not always exact repeats. Equal entries are not always repeated. Inconclusive results and toxic doses are left out. The calls were made as follows: active = survival T/C of 150% or more; inactive = T/C below 125% in these data.

Tested on: P388 leukemia ip, CD2F1 mice, survival T/C
Experiment: NCI In Vivo Anticancer Drug Screen. Data for tumor model P388 Leukemia (intraperitoneal) in CD2F1 (CDF1) mice
Details: endpoint: median survival time, higher = longer survival
Procedure, shortened: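 Mice carrying the transplanted tumor received test compound or vehicle. Survival was recorded in each group, and the value is the treated-group measurement divided by that of the vehicle-treated control group.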

[1] = dose: 50.0 mg/kg/injection, schedule: Q01DX009 (ip), vehicle: Klucel (hydroxypropylcellulose) (HPC)
[2] = dose: 25.0 mg/kg/injection, schedule: Q01DX009 (ip), vehicle: saline with Tween-80
[3] = dose: 50.0 mg/kg/injection, schedule: Q01DX009 (ip), vehicle: saline with Tween-80
[4] = dose: 100.0 mg/kg/injection, schedule: Q01DX009 (ip), vehicle: saline with Tween-80
[5] = dose: 30.0 mg/kg/injection, schedule: Q01DX005 (ip), vehicle: saline with Tween-80
[6] = dose: 100.0 mg/kg/injection, schedule: Q01DX001 (ip), vehicle: saline with Tween-80
[7] = dose: 200.0 mg/kg/injection, schedule: Q01DX001 (ip), vehicle: saline with Tween-80
[8] = dose: 400.0 mg/kg/injection, schedule: Q01DX001 (ip), vehicle: saline with Tween-80
[9] = dose: 50.0 mg/kg/injection, schedule: Q01DX005 (ip), vehicle: Klucel (hydroxypropylcellulose) (HPC)
[10] = dose: 100.0 mg/kg/injection, schedule: Q01DX005 (ip), vehicle: Klucel (hydroxypropylcellulose) (HPC)
[11] = dose: 200.0 mg/kg/injection, schedule: Q01DX005 (ip), vehicle: Klucel (hydroxypropylcellulose) (HPC)
[12] = dose: 60.0 mg/kg/injection, schedule: Q01DX005 (ip), vehicle: saline with Tween-80
[13] = dose: 120.0 mg/kg/injection, schedule: Q01DX005 (ip), vehicle: saline with Tween-80
[14] = dose: 240.0 mg/kg/injection, schedule: Q01DX005 (ip), vehicle: saline with Tween-80
[15] = dose: 50.0 mg/kg/injection, schedule: Q01DX009 (ip), vehicle: saline
[16] = dose: 100.0 mg/kg/injection, schedule: Q01DX009 (ip), vehicle: saline
[17] = dose: 200.0 mg/kg/injection, schedule: Q01DX009 (ip), vehicle: saline

Measured: T/C

CC(=O)NCCSC(NC(=O)Cc1ccccc1)C(=O)O (stereo not drawn)
inactive: [1] 94 % of control | dose: 100.0 mg/kg/injection, schedule: Q01DX009 (ip), vehicle: Klucel (hydroxypropylcellulose) (HPC) 97 % of control | dose: 200.0 mg/kg/injection, schedule: Q01DX009 (ip), vehicle: Klucel (hydroxypropylcellulose) (HPC) 100 % of control

O=C(O)c1cnc2cc(Cl)ccc2n1
inactive: [2] 100 % of control | [3] 100 % of control | [4] 95 % of control

CN1C(=O)CC2(C)C1=CCc1scnc12 (stereo not drawn)
inactive: dose: 7.5 mg/kg/injection, schedule: Q01DX005 (ip), vehicle: saline with Tween-80 94 % of control | dose: 15.0 mg/kg/injection, schedule: Q01DX005 (ip), vehicle: saline with Tween-80 99 % of control | [5] 99 % of control

O=C1Nc2ccccc2C1NC(=S)Nc1ccc(Cl)cc1 (stereo not drawn)
inactive: [6] 87 % of control | [7] 86 % of control

Oc1cccc2ccccc12
inactive: dose: 25.0 mg/kg/injection, schedule: Q01DX005 (ip), vehicle: water 100 % of control | dose: 50.0 mg/kg/injection, schedule: Q01DX005 (ip), vehicle: water 101 % of control | dose: 100.0 mg/kg/injection, schedule: Q01DX005 (ip), vehicle: water 111 % of control | dose: 200.0 mg/kg/injection, schedule: Q01DX005 (ip), vehicle: water 104 % of control | dose: 400.0 mg/kg/injection, schedule: Q01DX005 (ip), vehicle: water 93 % of control

Cn1c(Br)c(/C=N/NC(N)=S)c2ccccc21
inactive: dose: 100.0 mg/kg/injection, schedule: Q01DX001 (ip), vehicle: Klucel (hydroxypropylcellulose) (HPC) 108 % of control | dose: 200.0 mg/kg/injection, schedule: Q01DX001 (ip), vehicle: Klucel (hydroxypropylcellulose) (HPC) 100 % of control | dose: 400.0 mg/kg/injection, schedule: Q01DX001 (ip), vehicle: Klucel (hydroxypropylcellulose) (HPC) 102 % of control

CC(=O)OCC1OC(n2cnc3c2N=CN2C(CCl)=CC(=O)NC32)C(OC(C)=O)C1OC(C)=O (stereo not drawn)
inactive: [6] 103 % of control | [7] 103 % of control | [8] 110 % of control

Cc1nc2ccccc2c(=O)n1-c1ccc(-c2n[nH]c(=S)n2-c2ccccc2)cc1
inactive: [9] 105 % of control | [10] 110 % of control | [11] 102 % of control

CC(CN=C(CC(=O)c1ccccc1)c1ccccc1)N=C(CC(=O)c1ccccc1)c1ccccc1 (stereo not drawn)
inactive: [3] 104 % of control | [4] 103 % of control | dose: 200.0 mg/kg/injection, schedule: Q01DX009 (ip), vehicle: saline with Tween-80 97 % of control

CC(=O)OCC1OC(n2cnc3c(N)ncnc32)C2OC(C)(C)OC12 (stereo not drawn)
inactive: [9] 101 % of control | [10] 97 % of control

COc1ccc(Nc2cc[nH]c(=O)c2NC(C)=O)cc1
inactive: [12] 100 % of control | [13] 96 % of control | [14] 94 % of control

CCc1nc(N)nc(N)c1-c1ccc(NCCCN)c([N+](=O)[O-])c1
inactive: [5] 106 % of control | [12] 108 % of control and 110 % of control

CS(=O)(=O)C(c1nc2n(c1O)/C(=N/C(=O)Nc1ccc(Cl)cc1)N=N2)c1nc2n(c1O)/C(=N/C(=O)Nc1ccc(Cl)cc1)N=N2
inactive: dose: 60.0 mg/kg/injection, schedule: Q01DX005 (ip), vehicle: saline 97 % of control | dose: 120.0 mg/kg/injection, schedule: Q01DX005 (ip), vehicle: saline 96 % of control | dose: 240.0 mg/kg/injection, schedule: Q01DX005 (ip), vehicle: saline 95 % of control

C=CCc1ccc(Oc2cc(CC=C)cc(O)c2O)cc1
inactive: dose: 25.0 mg/kg/injection, schedule: Q01DX005 (ip), vehicle: Klucel + Tween-80 101 % of control | dose: 50.0 mg/kg/injection, schedule: Q01DX005 (ip), vehicle: Klucel + Tween-80 104 % of control | dose: 100.0 mg/kg/injection, schedule: Q01DX005 (ip), vehicle: Klucel + Tween-80 106 % of control | dose: 200.0 mg/kg/injection, schedule: Q01DX005 (ip), vehicle: Klucel + Tween-80 113 % of control

Cc1cccc2c(=O)n(C(=O)c3ccccc3)c(N)nc12
inactive: dose: 25.0 mg/kg/injection, schedule: Q01DX001 (ip), vehicle: saline with Tween-80 88 % of control | dose: 50.0 mg/kg/injection, schedule: Q01DX001 (ip), vehicle: saline with Tween-80 90 % of control | [6] 89 % of control | [7] 93 % of control

N#CCCNCCC[Si]12OCCN(CCO1)CCO2
inactive: [9] 97 % of control | [10] 100 % of control | [11] 101 % of control and 103 % of control

Cc1cc(N=Nc2ccc(NC(=O)c3ccc([N+](=O)[O-])cc3)cc2C)ccc1N=Nc1ccc2cc(S(=O)(=O)O)cc(S(=O)(=O)O)c2c1
inactive: dose: 12.5 mg/kg/injection, schedule: Q01DX005 (ip), vehicle: saline with Tween-80 102 % of control and 107 % of control and 109 % of control | dose: 25.0 mg/kg/injection, schedule: Q01DX005 (ip), vehicle: saline with Tween-80 109 % of control and 111 % of control and 120 % of control | dose: 100.0 mg/kg/injection, schedule: Q01DX005 (ip), vehicle: saline with Tween-80 111 % of control

Nc1ccc2ccccc2c1-c1c(N)ccc2ccccc12
inactive: dose: 6.25 mg/kg/injection, schedule: Q01DX009 (ip), vehicle: Klucel (hydroxypropylcellulose) (HPC) 109 % of control | dose: 12.5 mg/kg/injection, schedule: Q01DX009 (ip), vehicle: Klucel (hydroxypropylcellulose) (HPC) 91 % of control | dose: 25.0 mg/kg/injection, schedule: Q01DX009 (ip), vehicle: Klucel (hydroxypropylcellulose) (HPC) 102 % of control | [1] 111 % of control

O=C(Nc1ccc(Cl)c(Cl)c1)n1cnc2ccccc21
inactive: dose: 6.25 mg/kg/injection, schedule: Q01DX009 (ip), vehicle: saline 105 % of control and 109 % of control | [3] 98 % of control

O=C1C(Cl)=C(c2ccccc2)C(=O)C(Cl)=C1c1ccccc1
inactive: dose: 12.5 mg/kg/injection, schedule: Q01DX009 (ip), vehicle: saline with Tween-80 100 % of control | [2] 109 % of control | [3] 109 % of control

Cc1ccc(NC(=S)SCc2ccc3c(c2)OCO3)cc1Cl
inactive: dose: 50.0 mg/kg/injection, schedule: Q01DX009 (ip), vehicle: suspension in saline 106 % of control | dose: 100.0 mg/kg/injection, schedule: Q01DX009 (ip), vehicle: suspension in saline 94 % of control | dose: 200.0 mg/kg/injection, schedule: Q01DX009 (ip), vehicle: suspension in saline 102 % of control

COC(=O)C(C)(OC)SC (stereo not drawn)
inactive: [12] 106 % of control | [13] 100 % of control | [14] 98 % of control

CCCCCCCCCCCC#CC(=O)OC
inactive: [15] 105 % of control | [16] 103 % of control | [17] 103 % of control

Fc1ccc(NC(=S)SCc2ccccc2)cc1F
inactive: [15] 100 % of control | [16] 108 % of control | [17] 107 % of control

Cc1cccc(NC(=S)NC2C(=O)Nc3ccccc32)c1 (stereo not drawn)
inactive: [12] 102 % of control | [13] 100 % of control | [14] 98 % of control

CC(CCN(C)C)N(C)C (stereo not drawn)
inactive: dose: 50.0 mg/kg/injection, schedule: Q01DX005 (ip), vehicle: suspension in saline 106 % of control | dose: 100.0 mg/kg/injection, schedule: Q01DX005 (ip), vehicle: suspension in saline 98 % of control

Cc1cc2nc(CN)[nH]c2cc1C
inactive: dose: 50.0 mg/kg/injection, schedule: Q04DX003 (ip), vehicle: saline 100 % of control | dose: 100.0 mg/kg/injection, schedule: Q04DX003 (ip), vehicle: saline 100 % of control | dose: 200.0 mg/kg/injection, schedule: Q04DX003 (ip), vehicle: saline 95 % of control

CN1c2ccccc2S(=O)(=O)n2nnnc21
inactive: [6] 101 % of control | [7] 101 % of control | [8] 97 % of control

CC(=O)NC(Cc1ccccc1F)C(=O)O (stereo not drawn)
inactive: [15] 94 % of control | [16] 94 % of control | [17] 97 % of control

CC(=O)C(C(=O)Nc1cccc2ccccc12)C(C)=NCC(C)N=C(C)C(C(C)=O)C(=O)Nc1cccc2ccccc12.[Cu] (stereo not drawn)
inactive: dose: 12.5 mg/kg/injection, schedule: Q01DX005 (ip), vehicle: saline + Tween-80 + alcohol 110 % of control | dose: 25.0 mg/kg/injection, schedule: Q01DX005 (ip), vehicle: saline + Tween-80 + alcohol 96 % of control | dose: 50.0 mg/kg/injection, schedule: Q01DX005 (ip), vehicle: saline + Tween-80 + alcohol 105 % of control

On1cccc2c(Br)cnc1-2
inactive: [6] 98 % of control | [7] 99 % of control | [8] 90 % of control
